# Several values for one entry are separate records, joined by “and”; a condition that tells them apart may be missing. Equal values may be shown once.
# Assays:
# [1] = tested on: endogenous hPD1 gene in JURKAT and K562 cells; assay: hPD1 gene editing in T cell lines (T7E1 assay); format: cell-based, human
# Method: CAS9 protein was preloaded with purified sgRNA at a molar ratio of 1:1 and incubated for 10 min prior to forming complexes with peptides.
# 5×10^6 cells were washed twice with DPBS by centrifuging at 800 rpm for 5 minutes and resuspended in 100 ^l transfection buffer, and then transferred into the electroporation cuvette. An optimized program selected for both high transfection and high efficiency on T cells was used. After electroporation, cells were resuspended in 500 ^l pre-warmed AIM-V medium containing 10% FBS and incubated at 37° C. in 5% CO2. The transfection efficiency was evaluated after 48 hr by flow cytometry or T7E1 assay.
# RNAiMAX delivery method was used as positive control. Cells were either resuspended in or overlaid with 100 μl of preformed complexes, incubated for 3-5 min, and then 300 μl of DMEM was added. […] The indel frequency in the hPD1 gene was quantified using the T7E1 assay.
# [2] = tested on: U2OS, HEPG2, K562 cells and primary human fibroblasts; assay: CAS9 protein expression after CPP delivery of CAS9 mRNA (ELISA); format: cell-based; conditions: day 3; cell types not specified
# Method: CPP/CAS9 mRNA complexes were formed by mixing the CAS9 mRNA (0.5 μg) with CPP at a 20:1 molar ratio of CPP:CAS9 mRNA and incubating for 30 min at 37° C. prior to cell transfection. Cells were transfected according to optimized protocols for either adherent or suspension cell lines.
# Human primary fibroblasts were freshly obtained and grown in flasks pre-coated with a gelatin-based coating solution and incubated in Culture Complete Growth Medium for 3 days before expansion and treatment. U2OS cells were cultured in Dulbecco's Modified Eagle's Medium (DMEM), supplemented with 2 mM glutamine, 1% antibiotics (streptomycin 10,000 μg/mL, penicillin, 10,000 IU/mL) and 10% (w/v) foetal calf serum (FCS), at 37° C. in a humidified atmosphere containing 5% CO2. 35 mm dishes seeded with 150,000 cells the day prior to transfection were grown to 50-60% confluence and set up to be at about 70% confluences at the time of transfection. Before transfection, cells were washed with DMEM (2×) followed by PBS (1×). Cells were then overlaid with 0.2 ml of complex solution (16 μl CPP/Cargo complex in water+184 μl OPTiMEM without antibiotics), mixed gently, and incubated for 10 min at 37° C. 0.8 mL of fresh OPTiMEM or DMEM was then added and cells were incubated for 20 min at 37° C. 2 mL of complete OPTiMEM (high glucose) or DMEM containing 11.4% FCS was then added in order to reach a final FCS concentration of 10%, without removing the overlay of CPP/Cargo complexes. Cells were returned to the incubator (37° C., 5% CO2) and assayed at 72 hours post transfection.
# K562 and HEpG2 cells were set up to be at about 70% confluence at the time of transfection. The cells were maintained in high glucose DMEM media with 10% serum. Before transfection, cells were harvested by centrifugation, then washed with DMEM (2×) followed by PBS (1×). Cells were then resuspended in 0.2 ml of complex solution (16 μl CPP/Cargo complex in water+184 μl OPTiMEM without antibiotics), mixed gently, and incubated for 10 min at 37° C. 0.8 mL of fresh OPTiMEM was then added and cells were incubated for 20 min at 37° C. 2 mL of complete OPTiMEM (high glucose) containing 11.4% FCS was then added in order to reach a final FCS concentration of 10%, without removing the overlay of CPP/Cargo complexes. Cells were returned to the incubator (37° C., 5% CO2) and assayed at 72 hours post transfection.
# RNAiMAX lipid-based delivery (Invitrogen Thermo Fisher France) was used as a control and transfections were performed following the manufacturer's instructions. CAS9 expression level was analyzed at multiple time points over a period of 10 days as determined by ELISA on protein extracts using antibodies against CRISPR/Cas9 obtained from Diagenode (Diagenode cat. No. C15200223) and ABCAM (clone 7A9-ab191468).
# [3] = tested on: E-Catenin gene in mouse muscle myoblast cells (C2C12); assay: ü-Catenin gene disruption in C2C12 myoblasts (PCR gel); format: cell-based; conditions: undifferentiated and differentiated C2C12
# Method: Cells were transfected with CAS9/gRNA (2.5 μM/5 μM) complexes associated with CPP (+) or not (−) at a molar ratio of 20:1 (peptide to complex) and compared to delivery by RNAiMAX for E-Catenin expression. ü-actin expression was included as a loading control.
# (§1) […] Delivery by RNAiMAX was included as a positive control.
# (§2) CAS9-induced NHEJ was analyzed 72 hours after transfection by PCR (FIG. 26) and T7E1 assay (FIG. 27). The deletion (indel) frequencies in the HPRT gene were quantified using a T7E1 assay by quantifying the amount of uncut vs cut DNA using a Fragment Analyzer System. Data for on-target mutations induced by RGEN/gRNA are reported as an average of 3 separate experiments
# (§3) The cell line was maintained in 5% CO2 at 37° C. and cell viability was assessed by the Trypan Blue exclusion test. To induce myogenic differentiation, at about 80% cell confluence the medium containing 10% fetal calf serum was substituted with medium containing 1% fetal calf serum. The cells were transfected at the undifferentiated stage or at day 7 after differentiation.
# [4] = tested on: HPRT gene in mouse muscle myoblast cells (C2C12); assay: HPRT gene editing in C2C12 myoblasts (T7E1 assay); format: cell-based
# Method: as §1, §2, §3
# [5] = tested on: hPD1 gene in human T cells; assay: Simultaneous delivery of CAR plasmid and CAS9/gRNA: hPD1 editing (T7E1); format: cell-based; conditions: for mean indel frequency: two donors
# Method: Cells were incubated for 5 min, then 300 μl of serum free RPMI-1640 medium was added. After 30 min, 1.2 mL of full medium was added and serum level was adjusted to 10%. As control, CAS9 loaded with gRNA targeting GFP was used. For comparison with electroporation methods, cells were transfected with the anti-CD-19 CAR plasmid (5 μg) and gRNA/CAS9 (5 μg/10 μg) using Nucleofector 2b (Lonza, Germany) with the Amaxa Human T cells Nucleofector Kit, VPA-1002 (Lonza, Germany).
# On day 5, the level of transduced and untransduced cells was analyzed, and cells were transferred to fresh T cell expansion medium. The cultures were analyzed for viability and anti-CD19 CAR expression by flow cytometry. The expression of the anti-CD19 CAR in the T cells was evaluated by flow cytometry using a Protein L assay. […] 7-AAD (Sigma) was used to determine viability. CAS9-induced double-strand break followed by repair through NHEJ system was analyzed by either the T7E1 assay or using the Genome Cleavage Detection kit (GCD Thermo Fisher) and quantified using Fragment Analyzer System. The indel frequency in the target gene was quantified using the T7E1 assay. The cultures were expanded and analyzed for viability, anti-CD19 expression and PD I level every 10 days. T cell expansion medium contained AIM V medium, supplemented with 5% heat-inactivated human AB Serum, 1% Gluta-Max, and 300 IU/mL IL-2.
# Swiss mice = conditions: CAS9 protein 5 μg/VEPEP-3a 20:1; single i.v.; 12-72 hr
# Method: Free CAS9 protein in physiological buffer was injected as a negative control, and administration of LPS was used as a positive control for cytokine activation. […] Serum cytokine levels were measured using The Cytokine Mouse Magnetic 20-Plex Panel from Invritrogen (LMC 0006M).
# JURKAT and K562 cells = assay: Toxicity of CPP/CAS9/gRNA complexes in T cell lines (MTT assay); format: cell-based, human; conditions: up to 100 nM, 24 h
# Method: A total of 30,000 JURKAT or K562 cells seeded in 24-well plates the day prior to transfection were incubated with increasing concentrations of CPP/CAS9/gRNA complexed at 20:1 molar ratio (CPP to CAS9/gRNA) ranging from 1 nM to 200 nM for 30 min prior to addition of medium to reach a final 10% concentration of FCS. Cytotoxic response was measured 24 hours later by colorimetric MTT assay (Sigma, Germany). For MTT assay, cell culture medium was removed and replaced with PBS containing 2.5 mg/ml of MTT for 4 hours. Results correspond to the average of 3 independent experiments.
# [6] = tested on: U2OS and HEPG2 cell lines and primary human fibroblasts; assay: CAS9 protein expression after CPP delivery of CAS9-expressing plasmid (ELISA); format: cell-based; conditions: U2OS, HEPG2, primary human fibroblasts; day 6; plasmid 0.5 μg
# Method: CPP/plasmid complexes were prepared by mixing 0.5 μg of a CAS9-expressing plasmid (Addgene MLM3639-Plasmid #42252) with CPP at a 20:1 molar ratio of CPP:cargo and incubating for 30 min at 37° C. prior to cell transfection. Cells were transfected according to the protocols for adherent and suspension cells described in Example 13a. Lipofectamine 2000 was used as lipid-based delivery control. CAS9 protein expression level was analyzed at multiple time points over a period of 10 days as determined by ELISA on protein extracts using antibodies against CRISPR/Cas9 obtained from Diagenode (Diagenode cat. No. C15200223) and ABCAM (clone 7A9-ab191468).
# primary human T cells = assay: CAS9 protein expression in primary human T cells after CAS9 mRNA or plasmid delivery (ELISA); format: cell-based; conditions: day 3
# Method: T cells were isolated from PBMCs using anti-CD3/anti-CD28 antibodies bound to paramagnetic beads (Dynabeads ClinExVivo CD3/CD28, Invitrogen) at a ratio of 3:1 (beads:cells). The cells and beads were co-incubated for 2 hours at room temperature and CD3^+ cell enrichment was performed using Dynal ClinExVIVO MPC magnet (Thermo Fisher). The anti-CD3/anti-CD28 paramagnetic beads were removed, washed and concentrated. Cells in the CD3^+ fraction were resuspended in activation media at a concentration of 1×10^6 cells/ml with AIM-V medium (Thermo Fishers) supplemented with 10% fetal calf serum, 300 IU/ml IL2 and 50 ng/ml OKT3 (MuromonAB-CD3) for two days.
# CPP/CAS9 complexes were formed by mixing the CAS9 mRNA (0.5 μg) with CPP at a 20:1 molar ratio of CPP:CAS9 mRNA and incubating for 30 min at 37° C. prior to cell transfection. CPP/CAS9-expressing plasmid complexes were formed by mixing the CAS9-expressing plasmid (Addgene MLM3639-Plasmid #42252) (0.5 μg) with CPP at a 20:1 molar ratio of CPP:plasmid and incubating for 30 min at 37° C. prior to cell transfection.
# Cells were transfected according to the protocol for suspension cells described in Example 13a. RNAiMAX and lipofectamine 2000 lipid-based delivery methods (Invitrogen Thermo Fisher France) were used as controls, and transfections were performed following the manufacturer's instructions. CAS9 protein expression level was analyzed at multiple time points over a period of 10 days as determine by ELISA on protein extracts using antibodies against CRISPR/Cas9 obtained from Diagenode (Diagenode cat. No. C15200223) and ABCAM (clone 7A9-ab191468).
# [7] = tested on: hPD1 gene in human T cells; assay: hPD1 gene editing in primary human T cells (T7E1 assay); format: cell-based
# Method: T cells were isolated from PBMCs (2 different donors) using anti-CD3/anti-CD28 antibodies bound to paramagnetic beads (Dynabeads ClinExVivo CD3/CD28, Invitrogen) at a ratio of 3:1 (beads:cells). The cells and beads were co-incubated for 2 hours at room temperature and CD3′ cell enrichment was performed using Dynal ClinExVIVO MPC magnet (Thermo Fisher). The anti-CD3/anti-CD28 paramagnetic beads were removed, washed and concentrated. Cells in the CD3′ fraction were resuspended in activation media at a concentration of 1×10^6 cells/ml with AIM-V medium (Thermo Fishers) supplemented with 10% fetal calf serum, 300 IU/ml IL2 and 50 ng/ml OKT3 (MuromonAB-CD3) for two days.
# Cells were transfected by electroporation with CD-19 plasmid or gRNA/CAS9 (5 μg/10 μg) using a Nucleofector 2b (Lonza, Germany) with the Amaxa Human T cells Nucleofector Kit, VPA-1002 (Lonza, Germany). 5×10^6 cells were washed twice with DPBS by centrifuging at 800 rpm for 5 minutes and resuspended in 100 ^l transfection buffer, and then transferred into the electroporation cuvette. An optimized program selected for both high transfection and high efficiency on T cells was used. After electroporation, cells were resuspended in 500 ^l pre-warmed AIM-V medium containing 10% FBS and incubated at 37° C. in 5% CO2. The transfection efficiency was evaluated after 48 hr by flow cytometry or T7E1 assay.
# As control, CAS9 loaded with gRNA targeting GFP was used.
# Cells were returned to the incubator for 72 hours. CAS9-induced double-strand break followed by repair through non-homologous end joining (NHEJ) was analyzed by either the T7E1 assay or using the Genome Cleavage Detection kit (GCD Thermo Fisher) and quantified using Fragment Analyzer System. The indel frequency in the target gene was quantified using the T7E1 assay. The cultures were expanded and analyzed for viability and PD1 levels every 10 days. T cell expansion medium contained AIM V medium, supplemented with 5% heat-inactivated human AB Serum, 1% Gluta-Max, and 300 IU/mL IL-2.
# [8] = Particle size, polydispersity and zeta potential with different cargoes (Zetasizer NANO ZS P); format: physicochemical; conditions: 20:1
# Method: The CPP/CAS9-protein, CPP/CAS9-protein/sgRNA, CPP/CAS9-mRNA, CPP/CAS-mRNA/sgRNA particles were characterized; the mean size, polydispersity, and zeta potential were measured with a Zetasizer NANO ZS P apparatus (Malvern Ltd).
# The mean size and the polydispersity of the CCP/cargo complexes were determined at 25° C. for 5 min per measurement and zeta potential was measured with a Zetasizer NANO ZS P apparatus (Malvern Ltd).
# [9] = Donor 1, CAS9/sgRNA 2.5 μg/5 μg
# [10] = Donor 2, CAS9/sgRNA 2.5 μg/5 μg
# Method for Primary T cells: The toxicity of CPP/CAS9/gRNA complexes was investigated in the two cell lines (JURKAT and K562) and in PBMC-isolated T cells. Cell viability was determined using either MTT assay or 7-AAD.
# Data were normalized to untransfected cells and compared to T cells incubated with free CAS9/gRNA.
smiles,measurement,setting,value
N=C(N)NCCC[C@H](NC(=O)[C@H](CCCNC(=N)N)NC(=O)[C@H](CCCCN)NC(=O)[C@H](CCCNC(=N)N)NC(=O)[C@@H]1CCCN1C(=O)[C@H](Cc1c[nH]c2ccccc12)NC(=O)[C@H](CCC(=O)O)NC(=O)[C@H](CCCNC(=N)N)NC(=O)[C@H](Cc1ccccc1)NC(=O)[C@H](Cc1c[nH]c2ccccc12)NC(=O)[C@H](CCCNC(=N)N)NC(=O)[C@H](CCC(=O)O)NC(=O)[C@H](Cc1ccccc1)NC(=O)[C@H](Cc1c[nH]c2ccccc12)NC(=O)[C@H](CCCCN)NC(=O)CCN)C(=O)O [VEPEP-3a],Mean indel Frequency ± s.e.m,"[1]; JURKAT, CAS9/sgRNA 2.5 μg/5 μg",72 ± 5%
same,Mean indel Frequency ± s.e.m,"[1]; JURKAT, CAS9/sgRNA 5 μg/10 μg",78% and 78 ± 7%
same,Mean indel Frequency ± s.e.m,"[1]; K562, CAS9/sgRNA 2.5 μg/5 μg",71 ± 6%
same,Mean indel Frequency ± s.e.m,"[1]; K562, CAS9/sgRNA 5 μg/10 μg",75% and 75 ± 6%
same,ELISA signal for CAS9 protein expression,[2],little to no increase
same,editing of ü-Catenin and HPRT genes,[3],robust editing
same,mean indel frequency,[4]; differentiated C2C12,73%
same,mean indel frequency,"[4]; undifferentiated C2C12, 5 μg/10 μg CAS9/gRNA, 20:1",81%
same,Mean indel Frequency ± s.e.m,[5]; [9],51 ± 5%
same,Mean indel Frequency ± s.e.m,"[5]; Donor 1, CAS9/sgRNA 5 μg/10 μg",57 ± 2%
same,Mean indel Frequency ± s.e.m,[5]; [10],53 ± 5%
same,Mean indel Frequency ± s.e.m,"[5]; Donor 2, CAS9/sgRNA 5 μg/10 μg",58 ± 8%
same,mean indel frequency,[5]; 2.5 μg/5 μg CAS9/gRNA,approximately 50%
same,mean indel frequency,[5]; 5 μg/10 μg CAS9/gRNA,~57%
same,non-specific cytokine induction,Swiss mice,little to no impact
same,average viability,Primary T cells,≥ 80%
same,toxicity,JURKAT and K562 cells,no toxicity
same,ELISA signal for CAS9 protein expression,[6],little to no increase
same,ELISA signal for CAS9 protein expression,primary human T cells; CAS9-expressing plasmid 0.5 μg,little to no CAS9 expression
same,ELISA signal for CAS9 protein expression,primary human T cells; CAS9 mRNA 0.5 μg,little to no CAS9 expression
same,Mean indel Frequency ± s.e.m,[7]; [9],62 ± 5%
same,Mean indel Frequency ± s.e.m,"[7]; Donor 1, CAS9/sgRNA 5 μg/10 μg",65 ± 5%
same,Mean indel Frequency ± s.e.m,[7]; [10],67 ± 8%
same,Mean indel Frequency ± s.e.m,"[7]; Donor 2, CAS9/sgRNA 5 μg/10 μg",70 ± 5%
same,mean indel frequency of hPD1 gene,"[7]; T cells from the two donors, 5 μg/10 μg CAS9/gRNA",66%
same,formation of stable nanoparticles,[8]; with CAS9-protein and CAS9-protein/gRNA complex,able to form stable nanoparticles
same,Mean diameter,[8]; with CAS9-protein and CAS9-protein/gRNA,about 60 nm

# Reference: patent US20190211317A1, “PEPTIDES AND NANOPARTICLES FOR INTRACELLULAR DELIVERY OF GENOME-EDITING MOLECULES” (Aadigen, LLC, priority 2016, published 2019)
